Our source for the IC50 and solubility values is patent US8846694B2, “Pyrrolidone derivatives for use as MetAP-2 inhibitors” (Merck Patent GmbH, priority 2008, dated 2014).

Molecules are shown by their SMILES. ≈ marks a conversion by molar mass, not a printed value. Where a name gives a salt, the structure may show the parent alone.

Sequence of MetAP-2 (P50579 whole entry, species assumed): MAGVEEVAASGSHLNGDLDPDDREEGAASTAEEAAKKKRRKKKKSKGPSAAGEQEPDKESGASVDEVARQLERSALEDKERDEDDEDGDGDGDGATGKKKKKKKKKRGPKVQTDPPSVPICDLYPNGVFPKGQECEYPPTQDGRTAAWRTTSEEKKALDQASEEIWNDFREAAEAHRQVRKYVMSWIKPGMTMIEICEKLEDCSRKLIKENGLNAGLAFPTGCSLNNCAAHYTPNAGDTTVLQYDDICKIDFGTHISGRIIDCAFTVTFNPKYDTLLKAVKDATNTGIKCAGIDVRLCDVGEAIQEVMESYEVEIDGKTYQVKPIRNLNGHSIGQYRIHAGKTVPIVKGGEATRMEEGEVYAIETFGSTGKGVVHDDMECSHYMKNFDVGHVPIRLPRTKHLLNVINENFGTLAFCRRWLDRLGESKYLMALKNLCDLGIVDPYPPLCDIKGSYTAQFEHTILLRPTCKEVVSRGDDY

The target of the first data set is MetAP-2 (Homo sapiens, UniProt P50579). Description: MetAP-2 activity measurement (coupled enzymatic reactions, substrate Met-Arg-Ser, photometric at 450 nm). It counts as biochemical. The note with it: read-out: IC50 enzyme (Inhibition of MetAP-2). In outline:
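Human MetAP-2 cleaves Met-Arg-Ser; the freed methionine is oxidized by L-amino acid oxidase, and the resulting H2O2 drives peroxidase oxidation of dianisidine, read continuously at 450 nm. Activity is taken as the slope in the visually linear region.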
Turning to `O=C1CC[C@@H](C(=O)N2CCc3cccc(OC[C@H]4CCCN4c4ncnc5[nH]cnc45)c3C2)N1` [A192, (S)-5-{8-[(R)-1-(9H-Purin-6-yl)pyrrolidin-2-yl-methoxy]-3,4-dihydro-1H-isoquinoline-2-carbonyl}pyrrolidin-2-one], the IC50 lay in the range of 10 to 1000 nM.

For `Fc1ccc(-c2ncc(OC[C@H]3CCCN3c3ncnc4[nH]cnc34)cn2)cc1` [A77, 6-{(R)-2-[2-(4-Fluorophenyl)pyrimidin-5-yl-oxymethyl]pyrrolidin-1-yl}-9H-purine], the IC50 fell in the range of 1000 to 10000 nM.

With `c1cc(OC[C@H]2CCCN2c2ncnc3[nH]cnc23)c2cc(N3CCNCC3)ccc2c1` [A115, 6-[(R)-2-(7-Piperazin-1-ylnaphthalen-1-yl-oxymethyl)pyrrolidin-1-yl]-9H-purine], the IC50 was 10 to 1000 nM.

Regarding `CNc1ccccc1C(=O)OC[C@H]1CCCN1c1ncnc2[nH]cnc12` [A143, (R)-1-(9H-purin-6-yl)pyrrolidin-2-ylmethyl 2-methylaminobenzoate], the concentration for half-maximal inhibition (IC50) fell in the range of 10 to 1000 nM.

For `CC(C)(C)OC(=O)N[C@H](CC(N)=O)C(=O)Nc1ccc2cccc(OC[C@H]3CCCN3c3ncnc4[nH]cnc34)c2c1` [A162, tert-Butyl ((R)-2-carbamoyl-1-{8-[(R)-1-(9H-purin-6-yl)pyrrolidin-2-ylmethoxy]naphthalen-2-ylcarbamoyl}ethyl)carbamate], the half-inhibitory concentration (IC50) was in the range of 1000 to 10000 nM.

Take `NC(=O)CC[C@H](N)C(=O)Nc1ccc2cccc(OC[C@H]3CCCN3c3ncnc4[nH]cnc34)c2c1` [A165, N-(1-({8-[(R)-1-(9H-Purin-6-yl)pyrrolidin-2-yl-methoxy]naphthalen-2-yl})-(S)-2-aminopentan-5-amide * HCl]: the 50% inhibitory concentration (IC50) was 1000 to 10000 nM.

Regarding `CN(C)C(=O)C[C@H]1CCc2c(OC[C@H]3CCCN3c3ncnc4[nH]cnc34)cccc2C1=O` [A175, N,N-Dimethyl-2-{(R)-1-oxo-5-[(R)-1-(9H-purin-6-yl)pyrrolidin-2-ylmethoxy]-1,2,3,4-tetrahydro-naphthalen-2-yl}acetamide], the half-maximal inhibitory concentration (IC50) was 10 to 1000 nM.

With `c1cc2c(c(OC[C@H]3CCCN3c3ncnc4[nH]cnc34)c1)CCCC2` [A55, 6-[(R)-2-(5,6,7,8-Tetrahydronaphthalen-1-yl-oxymethyl)pyrrolidin-1-yl]-9H-purine], the IC50 was in the range of 10 to 1000 nM.

For `NC(=O)CCn1cnc2c(N3CCC[C@@H]3COc3cccc4ccc(O)cc34)ncnc21` [A135, 3-{6-[(R)-2-(7-Hydroxynaphthalen-1-yl-oxymethyl)pyrrolidin-1-yl]purin-9-yl}-propionamide], the concentration for half-maximal inhibition (IC50) was > 10000 nM.

Regarding `c1ccc(-c2ccc(OC[C@H]3CCCN3c3ncnc4[nH]cnc34)cc2)cc1` [A64, 6-[(R)-2-(Biphenyl-4-yloxymethyl)pyrrolidin-1-yl]-9H-purine], the IC50 is > 10000 nM.

As for `c1cc(OC[C@H]2CCCN2c2ncnc3[nH]cnc23)c2cnccc2c1` [A87, 8-[(R)-1-(9H-Purin-6-yl)pyrrolidin-2-yl-methoxy]isoquinoline], the IC50 fell in the range of 10 to 1000 nM.

Turning to `CN(C)CCNc1ncc(OC[C@H]2CCCN2c2ncnc3[nH]cnc23)c2ccccc12` [A181, N,N-Dimethyl-N′-{4-[(R)-1-(9H-purin-6-yl)-pyrrolidin-2-ylmethoxy]isoquinolin-1-yl}ethane-1,2-diamine], the IC50 was 10 to 1000 nM.

For `c1cnc2c(OC[C@H]3CCCN3c3ncnc4[nH]cnc34)ccc(CN3CCCCC3)c2c1` [A42, 5-Piperidin-1-ylmethyl-8-[(R)-1-(9H-purin-6-yl)-pyrrolidin-2-ylmethoxy]quinoline formate], the half-inhibitory concentration (IC50) lay in the range of 1000 to 10000 nM.

`O=C(O)c1cc(OC[C@H]2CCCN2c2ncnc3[nH]cnc23)c2cc(F)ccc2n1` [A141, 6-Fluoro-4-[(R)-1-(9H-purin-6-yl)pyrrolidin-2-yl-methoxy]quinoline-2-carboxylic acid]: the IC50 is 10 to 1000 nM.

`Clc1ccccc1CCC1CCCN1c1ncnc2[nH]cnc12` (racemic) [A5, 6-{2-[2-(2-chlorophenyl)ethyl]pyrrolidin-1-yl}-9H-purine]: the IC50 was in the range of 1000 to 10000 nM.

For `CC(=O)N(CCN1CCCCC1)Cc1ccc(OC[C@H]2CCCN2c2ncnc3[nH]cnc23)c2ccccc12` [A98, N-(2-Piperidin-1-ylethyl)-N-{4-[(R)-1-(9H-purin-6-yl)pyrrolidin-2-ylmethoxy]naphthalen-1-yl-methyl]acetamide], the 50% inhibitory concentration (IC50) is 10 to 1000 nM.

With `C(=C\[C@H]1CCCN1c1ncnc2[nH]cnc12)/c1cccc2ccccc12` [A12, 6-[(R)-2((E)-2-naphthalen-1-ylvinyl)pyrrolidin-1-yl]-9H-purine], the IC50 lay within 1000 to 10000 nM.

Consider `O=C(O)CNC(=O)N1CCN(c2ccc3cccc(OC[C@H]4CCCN4c4ncnc5[nH]cnc45)c3c2)CC1` [A158, [(4-{8-[(R)-1-(9H-Purin-6-yl)pyrrolidin-2-yl-methoxy]naphthalen-2-yl}piperazine-1-carbonyl)amino]acetic acid], for which the IC50 is > 10000 nM.

For `c1ccc2c(OC[C@H]3CCCN3c3ncnc4[nH]cnc34)ccnc2c1` [A93, 4-[(R)-1-(9H-Purin-6-yl)pyrrolidin-2-yl-methoxy]quinoline], the 50% inhibitory concentration (IC50) was in the range of 10 to 1000 nM.

`CNC(=O)c1cc(OC[C@H]2CCCN2c2ncnc3[nH]cnc23)c2ccccc2n1` [A48, N-Methyl-4-[(R)-1-(9H-purin-6-yl)pyrrolidin-2-yl-methoxy]quinoline-2-carboxamide formate]: the concentration for half-maximal inhibition (IC50) is 10 to 1000 nM.

For the compound `Cc1ccc2cccc(OC[C@H]3CCCN3c3ncnc4[nH]cnc34)c2n1` [A49, 2-Methyl-8-[(R)-1-(9H-purin-6-yl)pyrrolidin-2-yl-methoxy]quinoline], the IC50 was in the range of 1000 to 10000 nM.

Take `CCCCCNC(=O)c1cc(OC[C@H]2CCCN2c2ncnc3[nH]cnc23)c2ccccc2n1` [A81, N-Pentyl-4-[(R)-1-(9H-purin-6-yl)pyrrolidin-2-yl-methoxy]quinoline-2-carboxamide]: the IC50 lay in the range of 10 to 1000 nM.

With `Clc1ncc(OC[C@H]2CCCN2c2ncnc3[nH]cnc23)c2ccccc12` [A57, 1 -Chloro-4-[(R)-1-(9H-purin-6-yl)pyrrolidin-2-yl-methoxy]isoquinoline], the half-maximal inhibitory concentration (IC50) is 10 to 1000 nM.

On to `O=CN1CCN(c2ccc3cccc(OC[C@H]4CCCN4c4ncnc5[nH]cnc45)c3c2)CC1` [A166, 4-{8-[(R)-1-(9H-Purin-6-yl)pyrrolidin-2-ylm-ethoxy]naphthalen-2-yl}piperazine-1-carbaldehyde], for which the IC50 is 10 to 1000 nM.

Consider `N#CCCN1CCN(Cc2ccc(OC[C@H]3CCCN3c3ncnc4[nH]cnc34)c3ccccc23)CC1` [A128, 3-(4-{4-[(R)-1-(9H-Purin-6-yl)pyrrolidin-2-yl-methoxy]naphthalen-1-ylmethyl}piperazin-1-yl)-propionitrile], for which the IC50 lay within 10 to 1000 nM.

`O=C(NCCCO)c1cc(OC[C@H]2CCCN2c2ncnc3[nH]cnc23)c2ccccc2n1` [A85, N-(3-Hydroxypropyl)-4-[(R)-1-(9H-purin-6-yl)-pyrrolidin-2-ylmethoxy]quinoline-2-carboxamide]: the IC50 lay in the range of 10 to 1000 nM.

With `c1ccc2c(OC[C@H]3CCCN3c3ncnc4[nH]cnc34)cc(CNCCN3CCOCC3)nc2c1` [A191, (2-Morpholin-4-ylethyl)-{4-[(R)-1-(9H-purin-6-yl)pyrrolidin-2-ylmethoxy]quinolin-2-yl-methyl}amine], the IC50 fell in the range of 10 to 1000 nM.

As to `Clc1ccccc1OC[C@H]1CCCN1c1ncnc2ncccc12` [A22], the IC50 is > 10000 nM.

Turning to `c1ccc2c(OC[C@H]3CCCN3c3ncnc4ncccc34)cccc2c1` [A23, 4-[(R)-2-(Naphthalen-1-yloxymethyl)pyrrolidin-1-yl]pyrido[2,3-d]pyrimidine], the IC50 was > 10000 nM.

As to `O=CN(CCN1CCOCC1)Cc1ccc(OC[C@H]2CCCN2c2ncnc3[nH]cnc23)c2ccccc12` [A94, N-(2-Morpholin-4-ylethyl)-N-{4-[(R)-1-(9H-purin-6-yl)pyrrolidin-2-ylmethoxy]naphthalen-1-yl-methyl}formamide], the half-inhibitory concentration (IC50) lay in the range of 10 to 1000 nM.

As for `CNC(=O)CC1CCc2c(OC[C@H]3CCCN3c3ncnc4[nH]cnc34)cccc2C1=O` (stereo partly drawn) [A179, N-Methyl-2-{1-oxo-5-[(R)-1-(9H-purin-6-yl)-pyrrolidin-2-ylmethoxy]-1,2,3,4-tetrahydro-naphthalen-2-yl}acetamide], the IC50 lay in the range of 10 to 1000 nM.

Take `COc1ccc2cccc(OC[C@H]3CCCN3c3ncnc4[nH]cnc34)c2c1` [A118, 6-[(R)-2-(7-Methoxynaphthalen-1-yloxymethyl)-pyrrolidin-1-yl]-9H-purine]: the concentration for half-maximal inhibition (IC50) was 10 to 1000 nM.

As for `O=C(NC1CCC1)c1cc(OC[C@H]2CCCN2c2ncnc3[nH]cnc23)c2ccccc2n1` [A80, N-Cyclobutyl-4-[(R)-1-(9H-purin-6-yl)pyrrolidin-2-ylmethoxy]quinoline-2-carboxamide], the half-inhibitory concentration (IC50) fell in the range of 10 to 1000 nM.

Test system in the next data set: not listed separately
Description: Shake flask solubility measurement. Format: physicochemical. The note with it: shake flask, buffer; shaken at 37° C. for 24 h. How it is done:
Determination by Shake Flask Solubility Measurement
• Eluent A: 2 ml of diethylamine, for synthesis+1000 ml of methanol, LiChrosolv • Eluent B: 5 g of ammonium acetate, for analysis+5 ml of methanol, LiChrosolv+995 ml of ultrapure water Sample Solvent:
Buffer: 3.954 g of sodium dihydrogenphosphate monohydrate+6.024 g of sodium chloride+950 ml of ultrapure water the pH is adjusted using 0.1 M NaOH or 0.1 M HCl.
The samples are shaken at 37° C. and 450 rpm for 24 h.
After about 7 h, the pH of the samples is checked and adjusted if necessary. It is also checked whether the sample is still present in excess.
Just before the end of the 24 h shaking time, the samples are again checked for pH and a precipitate.
Turning to `CC(O)CNC(=O)c1cc(OC[C@H]2CCCN2c2ncnc3[nH]cnc23)c2ccccc2n1` (stereo partly drawn), the solubility was 325 µg/mL (≈ 726 µM).

The data set is the same for the next values; noted with them: sodium phosphate/sodium chloride buffer, aqueous buffer, thermodynamic from solid; buffer system at pH 7; shaken at 37° C. for 24 h.
`c1ccc2c(OC[C@H]3CCCN3c3ncnc4[nH]cnc34)ccc(CNCCN3CCOCC3)c2c1` [(2-morpholin-4-ylethyl)-{4-[(R)-1-(9H-purin-6-yl)pyrrolidin-2-ylmethoxy]naphthalen-1-ylmethyl}amine] displayed a solubility at 24 h of 283 µg/mL (≈ 580 µM).

The same data set, now with this note: sodium phosphate/sodium chloride buffer, aqueous buffer, thermodynamic from solid; shake flask, buffer; shaken at 37° C. for 24 h.
With `CNC(=O)/C=C1/CCc2c(OC[C@H]3CCCN3c3ncnc4[nH]cnc34)cccc2C1=O` [N-methyl-2-[1-oxo-5-[(R)-1-(9H-purin-6-yl)pyrrolidin-2-ylmethoxy]-3,4-dihydro-1H-naphthalen-(2Z)-ylidene]acetamide], the solubility at 24 h was found to be 29 µg/mL (≈ 67.1 µM).
